Test results taken from patent US11046658B2, “Aminopyrazine derivatives as PI3K-γ inhibitors” (Incyte Corporation, priority 2018, dated 2021).
Structures can show the parent of a compound that is named as a salt. Where two headings read alike, the source gives them in different places.

Assays:
[1] = target: PI3Kδ (p110δ/p85α) Recombinant Human Protein (Homo sapiens (Human), UniProt O00329); test: PI3Kδ Scintillation Proximity Assay; format: biochemical; details: 2 μM ATP, 20 μM PIP2
Description: (§1) Materials: [γ-^33P]ATP (10 mCi/mL) and Wheat Germ Agglutinin (WGA) YSi SPA Scintillation Beads was purchased from Perkin Elmer (Waltham, Mass.). Lipid kinase substrate, D-myo-Phosphatidylinositol 4,5-bisphosphate (PtdIns(4,5)P2)D (+)-sn-1,2-di-O-octanoylglyceryl, 3-O-phospho linked (PIP2), CAS 204858-53-7, was purchased from Echelon Biosciences (Salt Lake City, Utah). PI3Kδ (p110δ/p85α) Recombinant Human Protein was purchased from Eurofins (St Charles, Mo.). ATP, MgCl2, DTT, EDTA, MOPS and CHAPS were purchased from Sigma Aldrich (St. Louis, Mo.).
(§2) The kinase reaction was conducted in polystyrene 384-well Greiner Bio-one white plate from Thermo Fisher Scientific in a final volume of 25 μL. Inhibitors were first diluted serially in DMSO and added to the plate wells before the addition of other reaction components. The final concentration of DMSO in the assay was 2%. The PI3Kδ assay was carried out at room temperature in 20 mM MOPS, pH 6.7, 10 mM MgCl2, 5 mM DTT and CHAPS 0.03%. Reactions were initiated by the addition of ATP, the final reaction mixture consisted of 20 μM PIP2, 2 μM ATP, 0.5 μCi [γ-^33P] ATP, 3.4 nM PI3Kδ. Reactions were incubated for 120 min and terminated by the addition of 40 μL SPA beads suspended in quench buffer: 163 mM potassium phosphate pH 7.8, 20% glycerol, 25 mM EDTA. The final concentration of SPA beads is 1.0 mg/mL. After the plate sealing, plates were shaken overnight at room temperature and centrifuged at 1500 rpm for 10 min, the radioactivity of the product was determined by scintillation counting on Topcount (PerkinElmer). IC50 determination was performed by fitting the curve of percent of the solvent control activity versus the log of the inhibitor concentration using the GraphPad Prism 6.0 software.

[2] = target: PI3Kγ (p110γ) Recombinant Human Protein (Homo sapiens (Human), UniProt P48736); test: PI3K-γ Scintillation Proximity Assay; format: biochemical; details: 2 μM ATP, 20 μM PIP2
Description: as §1, with “PI3Kγ (p110γ)” for “PI3Kδ (p110δ/p85α)”, “Life technology (Grand Island, N.Y.).” for “Eurofins (St Charles, Mo.).”
as §2, with “PI3Kγ” for “PI3Kδ”, “13” for “3.4”, “PI3Kγ.” for “PI3Kδ.”, “(Perkin-Elmer).” for “(PerkinElmer).”

[3] = test system: Phosphorylated Ribosomal Protein S6 (RPS6) in THP-1 cells; test: THP-1 RPS6 ELISA Assay; format: cell-based, Human; details: THP-1 cells, 10 nM MCP-1, read-out: PI3Kγ_THP1_RPS6_ELISA IC50
Method in brief: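 Cells serum-starved overnight, pre-incubated with compounds 2 h at 37° C, then stimulated with 10 nM MCP-1 for 15 min. Lysates assayed for phospho-RPS6 by ELISA read at 450 nm. IC50 from percent inhibition vs log concentration curve fit.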

Chain of PI3Kγ (p110γ) Recombinant Human Protein (P48736 whole entry): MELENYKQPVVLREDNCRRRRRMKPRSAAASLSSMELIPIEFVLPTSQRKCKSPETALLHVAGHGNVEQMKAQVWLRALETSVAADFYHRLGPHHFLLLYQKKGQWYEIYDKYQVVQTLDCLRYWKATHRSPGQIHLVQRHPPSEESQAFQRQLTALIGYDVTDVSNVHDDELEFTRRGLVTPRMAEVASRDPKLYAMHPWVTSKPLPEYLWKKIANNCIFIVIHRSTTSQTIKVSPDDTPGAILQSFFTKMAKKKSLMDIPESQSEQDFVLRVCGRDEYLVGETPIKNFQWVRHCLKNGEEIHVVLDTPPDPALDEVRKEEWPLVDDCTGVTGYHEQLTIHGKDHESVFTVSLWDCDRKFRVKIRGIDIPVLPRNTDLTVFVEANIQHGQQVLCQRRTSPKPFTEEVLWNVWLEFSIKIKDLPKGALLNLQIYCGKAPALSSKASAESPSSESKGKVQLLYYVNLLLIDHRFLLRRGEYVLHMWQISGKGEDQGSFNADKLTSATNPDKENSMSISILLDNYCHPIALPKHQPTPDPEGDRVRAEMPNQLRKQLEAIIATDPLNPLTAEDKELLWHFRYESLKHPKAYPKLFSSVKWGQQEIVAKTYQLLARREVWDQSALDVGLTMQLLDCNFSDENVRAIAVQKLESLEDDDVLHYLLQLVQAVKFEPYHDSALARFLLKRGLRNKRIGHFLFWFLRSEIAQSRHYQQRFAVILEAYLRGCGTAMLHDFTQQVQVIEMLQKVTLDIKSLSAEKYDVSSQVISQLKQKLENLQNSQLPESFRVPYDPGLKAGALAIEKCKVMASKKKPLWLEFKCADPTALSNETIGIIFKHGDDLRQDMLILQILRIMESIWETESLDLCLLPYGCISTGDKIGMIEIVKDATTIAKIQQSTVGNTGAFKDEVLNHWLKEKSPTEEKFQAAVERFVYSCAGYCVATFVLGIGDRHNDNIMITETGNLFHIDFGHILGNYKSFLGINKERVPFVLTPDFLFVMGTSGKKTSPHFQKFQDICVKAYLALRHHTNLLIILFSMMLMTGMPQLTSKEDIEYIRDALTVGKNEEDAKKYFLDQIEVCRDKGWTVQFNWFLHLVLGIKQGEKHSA
Chain of PI3Kδ (p110δ/p85α) Recombinant Human Protein (O00329 whole entry): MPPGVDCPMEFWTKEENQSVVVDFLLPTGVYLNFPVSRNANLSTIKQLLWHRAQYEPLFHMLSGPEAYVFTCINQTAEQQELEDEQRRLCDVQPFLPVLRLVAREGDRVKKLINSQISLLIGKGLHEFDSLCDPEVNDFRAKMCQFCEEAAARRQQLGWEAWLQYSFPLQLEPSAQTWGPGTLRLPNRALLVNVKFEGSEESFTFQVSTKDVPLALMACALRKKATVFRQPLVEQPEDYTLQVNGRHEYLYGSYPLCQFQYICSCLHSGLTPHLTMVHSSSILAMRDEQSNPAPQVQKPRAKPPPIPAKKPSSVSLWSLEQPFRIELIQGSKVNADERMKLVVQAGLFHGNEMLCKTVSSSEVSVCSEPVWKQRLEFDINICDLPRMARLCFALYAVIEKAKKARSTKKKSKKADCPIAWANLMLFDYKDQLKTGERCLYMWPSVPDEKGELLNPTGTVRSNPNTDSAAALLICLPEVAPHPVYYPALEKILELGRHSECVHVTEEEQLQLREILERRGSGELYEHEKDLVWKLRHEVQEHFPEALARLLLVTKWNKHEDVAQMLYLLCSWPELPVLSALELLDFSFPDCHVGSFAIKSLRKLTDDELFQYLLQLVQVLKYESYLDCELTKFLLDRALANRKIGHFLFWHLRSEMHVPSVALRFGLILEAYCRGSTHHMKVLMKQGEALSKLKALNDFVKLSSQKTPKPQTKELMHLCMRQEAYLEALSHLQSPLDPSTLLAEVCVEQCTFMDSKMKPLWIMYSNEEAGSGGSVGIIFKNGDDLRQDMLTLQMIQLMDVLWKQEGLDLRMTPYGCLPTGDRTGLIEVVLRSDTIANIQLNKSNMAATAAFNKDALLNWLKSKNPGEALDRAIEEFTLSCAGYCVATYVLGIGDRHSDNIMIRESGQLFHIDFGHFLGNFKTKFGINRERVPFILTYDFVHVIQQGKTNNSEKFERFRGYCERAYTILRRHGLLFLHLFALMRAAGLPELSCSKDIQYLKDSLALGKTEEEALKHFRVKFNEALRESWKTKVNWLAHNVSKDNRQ
Chain of PI3Kδ (p110δ/p85α) Recombinant Human Protein (P27986 whole entry partner): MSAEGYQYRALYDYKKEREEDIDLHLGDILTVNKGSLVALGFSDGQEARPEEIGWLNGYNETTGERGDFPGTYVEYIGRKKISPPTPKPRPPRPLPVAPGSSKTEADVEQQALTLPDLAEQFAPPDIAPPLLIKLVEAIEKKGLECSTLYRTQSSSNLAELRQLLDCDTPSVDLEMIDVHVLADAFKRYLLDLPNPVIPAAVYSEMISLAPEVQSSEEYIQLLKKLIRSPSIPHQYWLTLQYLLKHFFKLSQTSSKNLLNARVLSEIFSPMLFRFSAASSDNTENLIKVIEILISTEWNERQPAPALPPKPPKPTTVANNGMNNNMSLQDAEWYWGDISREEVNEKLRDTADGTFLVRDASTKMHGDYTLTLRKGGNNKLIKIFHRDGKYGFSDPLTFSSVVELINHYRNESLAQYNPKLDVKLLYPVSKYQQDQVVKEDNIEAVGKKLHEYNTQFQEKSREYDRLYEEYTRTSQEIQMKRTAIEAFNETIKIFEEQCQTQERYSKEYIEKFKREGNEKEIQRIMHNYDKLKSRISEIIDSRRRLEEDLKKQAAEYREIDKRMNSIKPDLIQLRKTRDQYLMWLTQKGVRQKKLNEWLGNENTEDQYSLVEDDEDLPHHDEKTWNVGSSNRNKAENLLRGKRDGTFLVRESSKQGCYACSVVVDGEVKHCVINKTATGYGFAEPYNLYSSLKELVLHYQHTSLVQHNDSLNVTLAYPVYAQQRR

Compound	IC50 ([1]; Table A4)	IC50 ([2]; Table A4)	IC50 ([3]; Homo sapiens, Table A4)	IC50 ([1]; Table A3)	other results
Cc1ccc(C(O)(C(N)=O)C(F)(F)F)cc1-c1cnc(N)c(C2CC(C(=O)NC(C)C)C2)n1 (single isomer, unassigned) [Example 110, 3-(3-Amino-6-(5-(3-amino-1,1,1-trifluoro-2-hydroxy-3-oxopropan-2-yl)-2-methylphenyl)pyrazin-2-yl)-N-isopropylcyclobutane-1-carboxamide]	< 500 nM	< 500 nM	–	–	–
Cc1ccc(C(O)(C(N)=O)C(F)(F)F)cc1-c1cnc(N)c(C2CC(C(=O)NC(C)C)C2)n1 (single isomer, unassigned) [Example 111, 3-(3-Amino-6-(5-(3-amino-1,1,1-trifluoro-2-hydroxy-3-oxopropan-2-yl)-2-methylphenyl)pyrazin-2-yl)-N-isopropylcyclobutane-1-carboxamide]	–	< 100 nM	–	–	–
CCOC(=O)C1CC(c2nc(-c3cc(C(O)(C(N)=O)C(F)(F)F)ccc3C)cnc2N)C1 (single isomer, unassigned) [Example 109, Ethyl 3-(3-amino-6-(5-(3-amino-1,1,1-trifluoro-2-hydroxy-3-oxopropan-2-yl)-2-methylphenyl)pyrazin-2-yl)cyclobutane-1-carboxylate]	< 500 nM	< 100 nM	–	–	–
CCOc1ccccc1N1CCN(c2nc(-c3cc(C(O)(C(N)=O)C(F)(F)F)ccc3C)cnc2N)CC1 (stereo not drawn) [Example 129, 2-(3-(5-amino-6-(4-(2-ethoxyphenyl)piperazin-1-yl)pyrazin-2-yl)-4-methylphenyl)-3,3,3-trifluoro-2-hydroxypropanamide trifluoroacetate]	< 500 nM	–	< 1000 nM	–	–
2-(3-(5-amino-6-(2-methylthiazol-5-yl)pyrazin-2-yl)-4-methylphenyl)-3,3,3-trifluoro-2-hydroxypropanamide trifluoroacetate [Example 72]	–	–	–	< 100 nM	IC50 ([3]; Table A3): < 100 nM; IC50 ([2]; Table A3): < 100 nM
Cc1ccc(C(O)(C(N)=O)C(F)(F)F)cc1-c1cnc(N)c(-c2cccc(C(C)C)c2)n1 (stereo not drawn) [Example 90, 2-(3-(5-amino-6-(3-isopropylphenyl)pyrazin-2-yl)-4-methylphenyl)-3,3,3-trifluoro-2-hydroxypropanamide trifluoroacetate]	–	–	–	< 500 nM	IC50 ([3]; Homo sapiens, Table A3): < 500 nM
Cc1ccc(C(O)(C(N)=O)C(F)(F)F)cc1-c1cnc(N)c(C2CN(S(=O)(=O)c3cnn(C)c3)C2)n1 (single isomer, unassigned) [Example 107, 2-(3-(5-Amino-6-(1-((1-methyl-1H-pyrazol-4-yl)sulfonyl)azetidin-3-yl)pyrazin-2-yl)-4-methylphenyl)-3,3,3-trifluoro-2-hydroxypropanamide, trifluoroacetate salt]	< 2000 nM	< 100 nM	< 1000 nM	–	–
Cc1ccc(C(O)(C(N)=O)C(F)(F)F)cc1-c1cnc(N)c(N2CC(=O)N(c3ccc(O)cc3)[C@@H](CO)C2)n1 (stereo partly drawn) [Example 124, 2-(3-(5-amino-6-((R)-3-(hydroxymethyl)-4-(4-hydroxyphenyl)-5-oxopiperazin-1-yl)pyrazin-2-yl)-4-methylphenyl)-3,3,3-trifluoro-2-hydroxypropanamide trifluoroacetate]	< 500 nM	–	< 1000 nM	–	–
Cc1ccc(C(O)(CNC(=O)C(C)(C)O)C(F)(F)F)cc1-c1cnc(N)c(C(=O)NC(C)C)n1 (stereo not drawn) [Example 41, 3-Amino-N-isopropyl-6-(2-methyl-5-(1,1,1-trifluoro-2-hydroxy-3-(2-hydroxy-2-methylpropanamido)propan-2-yl)phenyl)pyrazine-2-carboxamide trifluoroacetate]	–	–	–	–	IC50 ([1]; Table A1): < 500 nM; IC50 ([3]; Homo sapiens, Table A1): > 1000 nM
Cc1ccc(C(O)(C(N)=O)C(F)(F)F)cc1-c1cnc(N)c(N2CCN(c3ccccc3C)CC2)n1 (stereo not drawn) [Example 118, 2-(3-(5-amino-6-(4-o-tolylpiperazin-1-yl)pyrazin-2-yl)-4-methylphenyl)-3,3,3-trifluoro-2-hydroxypropanamide trifluoroacetate]	< 500 nM	–	< 1000 nM	–	–
Cc1ccc(C(O)(C(=O)N(C)C)C(F)(F)F)cc1-c1cnc(N)c(-n2cncn2)n1 (stereo not drawn) [Example 95, 2-(3-(5-Amino-6-(1H-1,2,4-triazol-1-yl)pyrazin-2-yl)-4-methylphenyl)-3,3,3-trifluoro-2-hydroxy-N,N-dimethylpropanamide trifluoroacetate]	–	–	–	< 500 nM	IC50 ([2]; Table A3): < 500 nM
Cc1ccc(C(O)(C(N)=O)C(F)(F)F)cc1-c1cnc(N)c(-c2ccc(C3CC3)cc2)n1 (stereo not drawn) [Example 92, 2-(3-(5-amino-6-(4-cyclopropylphenyl)pyrazin-2-yl)-4-methylphenyl)-3,3,3-trifluoro-2-hydroxypropanamide trifluoroacetate]	–	–	–	< 500 nM	IC50 ([3]; Homo sapiens, Table A3): < 500 nM
CCOC(=O)C1CC(c2nc(-c3cc(C(O)(C(N)=O)C(F)(F)F)ccc3C)cnc2N)C1 (single isomer, unassigned) [Example 108, Ethyl 3-(3-amino-6-(5-(3-amino-1,1,1-trifluoro-2-hydroxy-3-oxopropan-2-yl)-2-methylphenyl)pyrazin-2-yl)cyclobutane-1-carboxylate]	< 2000 nM	< 500 nM	–	–	–
